Experimental data taken from US6485975B1, “Method for regenerating viable and fertile citrus plants by tissue culture from explants” (Council of Scientific and Industrial Research, priority 2000, dated 2002).
Where “and” joins values, the source holds several entries; their conditions need not be identical. Identical values can stand only once.

Columns and labels:
[1] = test system: excised shoot meristems of Citrus aurantifolia and C. sinensis; test: Growth of excised shoot meristems, both Citrus species not distinguished; format: cell-based
Excerpt: e) excising the meristem domes along with youngest 2-3 leaf primordia ranging in length between 0.2-0.5 mm from the aseptically grown shoots followed by their culture on the liquid medium-C under the same controlled light and temperature conditions as in step (c) at least for a period of 15 days to let them attain a length of ca. 8 mm, f) subculturing the meristem-regenerated shoots on filter paper bridge employing liquid medium-D in order to obtain healthy shoots of an average length of about 1.5 cm without intervening callusing within a period of 20-25 days, Since for growth, an excised shoot meristem may require exogenous supply of mainly three growth hormones, viz., a cytokinin, an auxin and a gibberellin, these were provided individually at 3 concentrations (mg 1^−1) each and in certain combinations as given below using the medium-C (Table I) devoid of IAA and GA as the basal medium: 0.1 BAP; 0.25 BAP; 0.5 BAP; 0.1 IAA; 0.25 IAA; 0.5 IAA: 5 GA; 10 GA; 15 GA; 0.1 BAP+0.1 IAA; 0.25 BAP+0.1 IAA; 0.5 BAP+0.1 IAA; 5 GA+0.1 IAA; 10 GA+0.1 IAA and 15 GA+0.1 IAA. […] In the next step, on the basis of the responses obtained, shoot meristems were cultured in all the afore-said 3 concentrations of BAP (0.1, 0.25 and 0.5 mg 1^−1) or GA (5, 10 and 15 mg 1^−1) along with 0.1 mg 1^−1 IAA. […] In this treatment, growth of meristem on nutrient agar as well as in liquid medium using filter paper bridge was compared. Shoot meristems grew far better on filter paper bridge than on nutrient agar in the same treatment (table 3). […] Higher or lower than 0.1 mg 1^−1 concentrations of BAP were not conducive to normal growth of shoot meristems.

[2] = test system: isolated shoots of C. sinensis; test: Proliferation of isolated shoots of C. sinensis; format: cell-based, Citrus sinensis; settings: for Condition of shoots / Growth of regenerated shoots Length in cm: 30 days; for No. of off-shoots regenerated: culture period 30 days, mean of 5 cultures ± S.E.
Excerpt: (§1) g) proliferating the meristem-regenerated 1.5-cm-long shoots of C. aurantifolia and C. sinensis by repeated subculture in medium-A and medium-B, respectively to obtain well-developed shoots to the extent of an average 10 shoots and 6 shoots, respectively, within 4 subcultures of 30 days each,
(§2) Proliferation of Isolated Shoots Obtained from Regenerated Nodal Stem Segments of Mature Field-grown Trees of Citrus aurantifolis and C. sinensis
(§3) Proliferation of isolated shoots was obtained in presence of BAP and an auxin, LAA or NAA employing the medium-A (Table I) for C. aurantifolia, and medium-B (Table I) for C. sinensis, but not vice-versa, where both media A and B, devoid of growth hormones comprised the basal media. […] Responses of the isolated shoots to some selected combinations of BAP with IAA or NAA are given in the Table 1, which lead to the selection of specific nutrient media for optimum proliferation of shoots of these two Citrus species.
Likewise, 0.25 mg 1^−1 concentration of BAP and 0.5 mg 1^−1 of NAA were selected comprising the medium-B for optimum proliferation of shoots of C. sinensis in view of the same two criteria, viz., moderately high number of offshoot production with good growth and their differentiation without any intervening callusing.

[3] = test system: isolated shoots of Citrus aurantifolia; test: Proliferation of isolated shoots of Citrus aurantifolia; format: cell-based; settings: for Condition of shoots / Growth of regenerated shoots Length in cm: 30 days; for No. of off-shoots regenerated: culture period 30 days, mean of 5 cultures ± S.E.
Excerpt: as §1, §2, §3
The maximum number of offshoots produced per explant of a shoot tip of C. aurantifolia was 7 in 0.75 mg 1^−1 BAP and 0.25 mg 1^−1 IAA, however, the shoots not only were restricted in growth, but also substantial intervening callus was formed. Similarly, in the concentrations of 0.5 and 1.0 mg 1^−1 BAP, particularly the second aspect of response remained equally prominent, i.e., growth restriction of offshoots and intervening callusing during their differentiation. […] Thus, the 0.25 mg 1^−1 concentration of both BAP and IAA was selected comprising the medium-A for proliferation of isolated shoots originally regenerated from nodal stem segments of mature field-grown trees of C. aurantifolia.

[4] = test system: meristem-regenerated shoots of C. sinensis; test: Root induction in meristem-regenerated shoots of C. sinensis; format: cell-based, Citrus sinensis; settings: same treatments as for C. aurantifolia (0.25 mg l^-1 auxin, 1 mg l^-1 chlorogenic acid)
Excerpt: (§4) h) rooting of the isolated well-developed shoots of C. aurantifolia to the extent of 100% in 15 days, and of C. sinensis to the extent of 90% in 25 days, in agarified media-E and F respectively.
The medium-E, which was found effective for inducing desirable rooting in a number of Citrus species, including its rootstocks, when was found deficient for promoting root induction in the presence of multiple combinations of auxins, viz., IAA. IPA, IBA and NAA without or with phenolic acids, namely, phloroglucinol and chlorogenic acid, it was variously modified. The modifications included, increase in the concentrations of thiamine-HCl, pyridoxine-HCl and nicotinic acid to 2.5, 0.5 and 0.5 mg 1^−1, respectively, addition of some other root promoting vitamins, like, riboflavin, folic acid and d-biotin at the concentration of 0.1 mg 1^−1 each as also 15 mg 1^−1 L-arginine.
The rooting responses of well-developed isolated shoots of C. sinensis to various auxins used without and with phenolic acids employing the medium-E (Table I) devoid of auxins and the phenolic acid as the basal medium, are presented in Table 3. A combination of three auxins, namely, IAA, NAA and IPA along with a phenolic acid, namely, chlorogenic acid or phloroglucinol was essential for root induction.

[5] = test system: meristem-regenerated shoots of Citrus aurantifolia; test: Root induction in meristem-regenerated shoots of Citrus aurantifolia; format: cell-based; settings: 0.25 mg l^-1 of the auxin, used with 1 mg l^-1 chlorogenic acid
Excerpt: as §4
The meristem-regenerated well-developed shoots of C. aurantifolia easily rooted in medium-E (Table I) selected on the basis of the formulations used earlier during the investigations on Citrus tissue culture in this Laboratory (Chaturvedi, H. C. 1979. Tissue culture of economic plants. In: Progress in Plant Research. Eds. T. N. Khoshoo and P. K. K. Nair, Today and Tomorrow's Publisher, New Delhi, Vol.1, pp.265-288; Chaturvedi, H. C. and Sharma, A. K. 1988. Citrus tissue culture. In: Proc. Natl. Seminar on Plant Tissue Culture, I.C.A.R., New Delhi, pp.36-46). The basic differences of the root inducing media from the shoot proliferation media of Citrus are, comparatively lower concentrations of nitrogen, calcium and magnesium in the former. […] Even its shoots raised from seedling explants have been reported to be intractable-to-root in vitro (Duran-vila, N., Ortega, V. and Navarro, L. 1989. Morphogenesis and tissue cultures of three citrus species. Plant Cell, Tissue and Organ Culture, 16: 123-133).

[6] = BAP (0.1, 0.25, 0.5 mg l^-1) or GA (5, 10, 15 mg l^-1) along with 0.1 mg l^-1 IAA
[7] = individually at lower concentrations: IAA 0.1 mg l^-1 or GA 5 mg l^-1

SMILES: c1ccc(CNc2ncnc3nc[nH]c23)cc1 [BAP, 6-benzylaminopurine]
- response of shoot meristems [1, 6]: became abnormally thick
- delay of necrosis of shoot meristem ([1]; BAP individually, particularly 0.1 mg l^-1): 10 to 15 days
- Condition of shoots ([2]; BAP 0.1 mg l^-1 with 0.5 NAA): A few well-
- Growth of regenerated shoots Length in cm ([2]; BAP 0.1 mg l^-1 with 0.5 NAA): 1.16 ± 0.27 cm
- No. of off-shoots regenerated ([2]; BAP 0.1 mg l^-1 with 0.5 NAA): 1.8 ± 0.37
- Condition of shoots ([2]; BAP 0.25 mg l^-1 with 0.5 NAA): Well-developed
- Growth of regenerated shoots Length in cm ([2]; BAP 0.25 mg l^-1 with 0.5 NAA): 1.65 ± 0.20 cm
- No. of off-shoots regenerated ([2]; BAP 0.25 mg l^-1 with 0.5 NAA): 2.6 and 2.6 ± 0.24
- Condition of shoots ([2]; BAP 0.5 mg l^-1 with 0.5 NAA): Well-developed
- Growth of regenerated shoots Length in cm ([2]; BAP 0.5 mg l^-1 with 0.5 NAA): 1.08 ± 0.12 cm
- No. of off-shoots regenerated ([2]; BAP 0.5 mg l^-1 with 0.5 NAA): 3.4 ± 0.44
- Growth of regenerated shoots Length in cm ([2]; BAP 0.75 mg l^-1 with 0.5 NAA): 0.78 ± 0.10 cm
- No. of off-shoots regenerated ([2]; BAP 0.75 mg l^-1 with 0.5 NAA): 3.2 ± 0.73
- Growth of regenerated shoots Length in cm ([2]; BAP 1.0 mg l^-1 with 0.5 NAA): 0.75 ± 0.08 cm
- No. of off-shoots regenerated ([2]; BAP 1.0 mg l^-1 with 0.5 NAA): 2.0 ± 0.31
- Condition of shoots ([3]; BAP 0.1 mg l^-1 with 0.25 IAA): A few well-develop-
- Growth of regenerated shoots Length in cm ([3]; BAP 0.1 mg l^-1 with 0.25 IAA): 1.44 ± 0.14 cm
- No. of off-shoots regenerated ([3]; BAP 0.1 mg l^-1 with 0.25 IAA): 3.6 ± 0.40
- Condition of shoots ([3]; BAP 0.25 mg l^-1 with 0.25 IAA): Well-developed
- Growth of regenerated shoots Length in cm ([3]; BAP 0.25 mg l^-1 with 0.25 IAA): 1.40 ± 0.13 cm
- No. of off-shoots regenerated ([3]; BAP 0.25 mg l^-1 with 0.25 IAA): 5.8 and 5.8 ± 0.58
- Growth of regenerated shoots Length in cm ([3]; BAP 0.5 mg l^-1 with 0.25 IAA): 0.99 ± 0.10 cm
- No. of off-shoots regenerated ([3]; BAP 0.5 mg l^-1 with 0.25 IAA): 5.4 ± 1.02
- Growth of regenerated shoots Length in cm ([3]; BAP 0.75 mg l^-1 with 0.25 IAA): 0.86 ± 0.08 cm
- No. of off-shoots regenerated ([3]; BAP 0.75 mg l^-1 with 0.25 IAA): 7 and 7.0 ± 0.44
- Growth of regenerated shoots Length in cm ([3]; BAP 1.0 mg l^-1 with 0.25 IAA): 0.76 ± 0.10 cm
- No. of off-shoots regenerated ([3]; BAP 1.0 mg l^-1 with 0.25 IAA): 5.6 ± 1.40

SMILES: C=C1C[C@]23C[C@@]1(O)CC[C@H]2[C@@]12C=C[C@H](O)[C@@](C)(C(=O)O1)[C@H]2[C@@H]3C(=O)O [GA, gibberellic acid]
- response of shoot meristems [1, 6]: registered some growth
- response of shoot meristems [1, 7]: remained fresh with a little increase in their length

SMILES: O=C(O)Cc1c[nH]c2ccccc12 [IAA, indole-3-acetic acid]
- rooting [4]: did not root
- rooting [5]: Hundred percent
- response of shoot meristems [1, 7]: remained fresh with a little increase in their length

SMILES: O=C(O)CCCc1c[nH]c2ccccc12 [IBA, indole-3-butyric acid]
- rooting [4]: did not root
- rooting [5]: Hundred percent

SMILES: O=C(O)CCc1c[nH]c2ccccc12 [IPA, indole-3-propionic acid]
- rooting [4]: did not root
- rooting [5]: Hundred percent

SMILES: O=C(O)Cc1cccc2ccccc12 [NAA, α-naphthalene-acetic acid]
- rooting [4]: did not root
- rooting [5]: Hundred percent
